Experimental findings from ChEMBL document CHEMBL3351234, “Discovery of novel 2,4-diarylaminopyrimidine analogues (DAAPalogues) showing potent inhibitory activities against both wild-type and mutant ALK kinases” (J Med Chem, 2015) are described below.

Data set [1] is described as follows: in vivo. Particulars: rat, plasma, po, 2.5 mg/kg.
A short description of data set [2]: in vivo. Particulars: rat, po, 2.5 mg/kg.
Data set [3] can be described thus: physchem. The note with it: aqueous.
The nature of data set [4]: physchem. The note with it: aqueous. The source holds these as a separate data set.

Values after ≈ are worked out from the molar mass of the structure shown. Some results are limits rather than exact numbers.

The AUC(0-inf) is total exposure, with the tail of the curve extrapolated. Read a high AUC(0-inf) as high exposure. For orientation: half-life means the time in which the quantity being followed falls by half. A higher half-life goes with slow decline. The solubility is the dissolved amount per volume that the medium holds. Low values mean a poorly soluble substance, high ones a readily soluble substance. In data set [1], `CC(C)S(=O)(=O)c1ccccc1Nc1nc(Nc2cccc(NC(=O)CN)c2)ncc1Cl` showed an AUC(0-inf) of 454 ng·h/mL. The molecule further showed a half-life in data set [2] of 30 min. Also, the solubility in data set [3] is under 100 µg/mL; in data set [4], 4000 µg/mL (≈ 8.42 mM).
